PubChem BioAssay AID2060512 (Molecular Pharmacology Branch, DTP, NCI, 2025)

System: 186277-243-T-J2-PDC complex spheroid viability
Assay: Anticancer human tumor 186277-243-T-J2-PDC patient-derived colon adenocarcinoma cell line growth inhibition [GQUAD]
Settings: for IC50: curve of first compound; for viability, T/C: stronger effect = lower value
Method in brief: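 Multi-cell-type spheroids of tumor cells with HUVEC and mesenchymal stem cells, treated with drug combinations. Concentrations descend in half-log steps from near clinical Cmax, or from 10 microM where Cmax is unknown; viability read-out.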

[1] = second compound 0.0316 µM, first compound 0.0316 µM
[2] = second compound 0.0316 µM, first compound 0.1 µM
[3] = second compound 0.0316 µM, first compound 0.316 µM
[4] = second compound 0.0316 µM, first compound 1 µM
[5] = second compound 0.0316 µM, first compound 3.16 µM
[6] = second compound 0.0316 µM, first compound 10 µM
[7] = second compound 0.1 µM, first compound 0.0316 µM
[8] = second compound 0.1 µM, first compound 0.1 µM
[9] = second compound 0.1 µM, first compound 0.316 µM
[10] = second compound 0.1 µM, first compound 1 µM
[11] = second compound 0.1 µM, first compound 3.16 µM
[12] = second compound 0.1 µM, first compound 10 µM
[13] = second compound 0.316 µM, first compound 0.0316 µM
[14] = second compound 0.316 µM, first compound 0.1 µM
[15] = second compound 0.316 µM, first compound 0.316 µM
[16] = second compound 0.316 µM, first compound 1 µM
[17] = second compound 0.316 µM, first compound 3.16 µM
[18] = second compound 0.316 µM, first compound 10 µM
[19] = second compound 1 µM, first compound 0.0316 µM
[20] = second compound 1 µM, first compound 0.1 µM
[21] = second compound 1 µM, first compound 0.316 µM
[22] = second compound 1 µM, first compound 1 µM
[23] = second compound 1 µM, first compound 3.16 µM
[24] = second compound 1 µM, first compound 10 µM
[25] = second compound 3.16 µM, first compound 0.0316 µM
[26] = second compound 3.16 µM, first compound 0.1 µM
[27] = second compound 3.16 µM, first compound 0.316 µM
[28] = second compound 3.16 µM, first compound 1 µM
[29] = second compound 3.16 µM, first compound 3.16 µM
[30] = second compound 3.16 µM, first compound 10 µM
[31] = second compound 10 µM, first compound 0.0316 µM
[32] = second compound 10 µM, first compound 0.1 µM
[33] = second compound 10 µM, first compound 0.316 µM
[34] = second compound 10 µM, first compound 1 µM
[35] = second compound 10 µM, first compound 3.16 µM
[36] = second compound 10 µM, first compound 10 µM
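Further: spheroids exposed to drugs for 7 days.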
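Wherever viability, T/C is given: 100% = DMSO vehicle control viability.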

Work on `COc1cccc2c1C(=O)c1c(O)c3c(c(O)c1C2=O)CC(O)(C(=O)CO)CC3OC1CC(N)C(O)C(C)O1` (centres undefined) + CN(C)c1ccc(Nc2c3ccc(NC(=O)CCN4CCCC4)cc3nc3cc(NC(=O)CCN4CCCC4)ccc23)cc1 yielded an IC50 (second compound 0.0316 µM) of 390 nM, an IC50 (second compound 0.1 µM) of 369 nM and an IC50 (second compound 0.316 µM) of 311 nM. It also gave an IC50 (second compound 1 µM) of 280 nM, an IC50 (second compound 3.16 µM) of 380 nM and an IC50 (second compound 10 µM) of 438 nM. It also gave a viability, T/C [1] of 109%, a viability, T/C [2] of 94.3% and a viability, T/C [3] of 59.1%. For the same compound, the viability, T/C [4] was 14.6%, the viability, T/C [5] was 0.22% and the viability, T/C [6] was 0.33%. For the same compound, the viability, T/C [7] was 96.2%, the viability, T/C [8] was 93.8% and the viability, T/C [9] was 54.8%. The viability, T/C [10] was 13%, the viability, T/C [11] was 0.14% and the viability, T/C [12] was 0.11%. The viability, T/C [13] was 107%, the viability, T/C [14] was 78.9% and the viability, T/C [15] was 53.6%. It also gave a viability, T/C [16] of 19.4%, a viability, T/C [17] of 0.17% and a viability, T/C [18] of 0.49%. For the same compound, the viability, T/C [19] was 105%, the viability, T/C [20] was 88.9% and the viability, T/C [21] was 43.2%. The viability, T/C [22] was 16.6%, the viability, T/C [23] was 0.37% and the viability, T/C [24] was 0.6%. It also gave a viability, T/C [25] of 109%, a viability, T/C [26] of 91% and a viability, T/C [27] of 56.4%. It also gave a viability, T/C [28] of 19.8%, a viability, T/C [29] of 0.3% and a viability, T/C [30] of 0.16%. It also gave a viability, T/C [31] of 97.7%, a viability, T/C [32] of 81.6% and a viability, T/C [33] of 63.5%. It also gave a viability, T/C [34] of 21.9%, a viability, T/C [35] of 1.2% and a viability, T/C [36] of 0.25%.

`COc1cccc2c1C(=O)c1c(O)c3c(c(O)c1C2=O)CC(O)(C(=O)CO)CC3OC1CC(N)C(O)C(C)O1` (centres undefined) + Cc1cnc(CNC(=O)c2c(=O)c3ccc(N4CCCN(C)CC4)nc3n3c2sc2ccccc23)cn1 was tested, and the IC50 (second compound 0.0316 µM) was 433 nM, the IC50 (second compound 0.1 µM) was 634 nM and the IC50 (second compound 0.316 µM) was 350 nM. For the same compound, the IC50 (second compound 1 µM) was under 31.6 nM, the IC50 (second compound 3.16 µM) was under 31.6 nM and the IC50 (second compound 10 µM) was under 31.6 nM. It also gave a viability, T/C [1] of 113%, a viability, T/C [2] of 84.8% and a viability, T/C [3] of 65.2%. For the same compound, the viability, T/C [4] was 24.3%, the viability, T/C [5] was 1.89% and the viability, T/C [6] was 0.15%. For the same compound, the viability, T/C [7] was 86.5%, the viability, T/C [8] was 78.3% and the viability, T/C [9] was 77%. For the same compound, the viability, T/C [10] was 32.6%, the viability, T/C [11] was 1.48% and the viability, T/C [12] was 0.63%. The viability, T/C [13] was 59.4%, the viability, T/C [14] was 56.3% and the viability, T/C [15] was 52.3%. The viability, T/C [16] was 23.8%, the viability, T/C [17] was 0.99% and the viability, T/C [18] was 0.15%. It also gave a viability, T/C [19] of 45.9%, a viability, T/C [20] of 37.5% and a viability, T/C [21] of 46.5%. It also gave a viability, T/C [22] of 19.9%, a viability, T/C [23] of 0.12% and a viability, T/C [24] of 1.33%. The viability, T/C [25] was 43.5%, the viability, T/C [26] was 54.4% and the viability, T/C [27] was 31.4%. It also gave a viability, T/C [28] of 13.3%, a viability, T/C [29] of 2.48% and a viability, T/C [30] of 0.22%. For the same compound, the viability, T/C [31] was 39.9%, the viability, T/C [32] was 41.3% and the viability, T/C [33] was 41.8%. For the same compound, the viability, T/C [34] was 15.9%, the viability, T/C [35] was 0.24% and the viability, T/C [36] was 0.26%.
